In PMC4342090, “A novel inhibitor of Plasmodium falciparum spermidine synthase: a twist in the tail” (Malaria Journal, 2015):
“Also recorded” adds a separate entry of the source. Like-named read-outs stand apart in the source and are kept apart here. Peptide text beside a SMILES is read from it.

What was measured:
[1] = target: T1, PfSpdS (Plasmodium falciparum, UniProt Q8II73); settings: cited from earlier work; for IC50: P. falciparum, read-out: Enzyme inhibition, IC50
[2] = target: T1, PfSpdS; assay: biochemical; assay type: biochemical; settings: for inhibition at 100 µM: read-out: % Inhibition (at 100 μM); for fold difference in IC50 between compound 8 and compound 9: PfSpdS; for pseudo-substrate for PfSpdS: unpublished results of the authors
Experimental: A 29 amino acid N-terminus deletion mutant of PfSpdS cloned into pTRCHisB (Invitrogen) was expressed in E. coli BLR (DE3), purified and assayed as described by Haider et al. [18]. […] Stock solutions of the inhibitors were prepared in dddH2O. For the 100 μM assays, 1 μg purified PfSpdS, 50 μM RS-dcAdoMet, 100 nCi [2,3-^3H] putrescine hydrochloride (60 Ci/mmol; American Radiolabelled Chemicals, Inc, Minnesota, USA) and 50 μM unlabelled putrescine dihydrochloride (Sigma) were used. […] All inhibition assays were performed in triplicate.

[3] = tested on: mammalian SpdS; settings: cited from earlier work; for IC50: Mammalian, read-out: Enzyme inhibition, IC50
[4] = tested on: mammalian SpdS; assay: Mammalian spermidine synthase enzyme inhibition; assay type: biochemical
[5] = tested on: mammalian spermine synthase; set-up: method as in Shirahata et al. [22]; settings: ref Shirahata et al. [22], cited from earlier work
[6] = target: the molecule itself; assay: crystal structure; hanging drop vapour diffusion, 293 K; 25% PEG3350, 0.1 M MES pH 5.6, 0.1 M (NH4)2SO4; protein pre-incubated with 2.5 mM compound 8 and MTA; space group C121, three molecules in the asymmetric unit; interface analysed with PISA
[7] = ref Lakanen et al. [21], Pegg et al. [38]
[8] = 100 μM compound, PfSpdS activity inhibited compared to untreated enzyme, mean ± SEM, 100 µM

T1 sequence (Q8II73 entry or part of it): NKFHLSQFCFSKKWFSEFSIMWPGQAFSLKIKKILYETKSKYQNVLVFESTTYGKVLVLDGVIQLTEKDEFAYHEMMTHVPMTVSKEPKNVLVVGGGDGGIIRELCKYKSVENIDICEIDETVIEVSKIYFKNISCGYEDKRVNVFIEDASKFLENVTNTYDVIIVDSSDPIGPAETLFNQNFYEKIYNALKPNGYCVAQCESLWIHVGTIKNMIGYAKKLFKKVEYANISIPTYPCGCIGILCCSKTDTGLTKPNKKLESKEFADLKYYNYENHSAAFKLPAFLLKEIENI

## 5′-methylthioadenosine [MTA]
[1]; ref Haider et al. [18]
  IC50: 159 ± 27 µM

## C[C@H]1CC[C@H](N)CC1 [4MCHA, trans-4-methylcyclohexylamine]
[2]
  inhibition at 100 µM: 95.3 ± 0.4%
[3]; [7]
  IC50: 1.7 µM
[1]; ref Haider et al. [18]
  IC50: 1.4 ± 0.1 µM

## C=CCCCN [APE, 5-amino-1-pentene]
[3]; ref Goda et al. [39]
  IC50: 1.7 µM
[1]; ref Haider et al. [18]
  IC50: 6.5 ± 2.1 µM

## NCCCCCC(CCN)SCC1OC(n2cnc3c(N)ncnc32)C(O)C1O (stereo not shown) [AdoDATO, S-adenosyl-1,8-diamino-3-thio-octane]
[3]; [7]
  IC50: 0.05 to 0.1 µM
[1]; ref Dufe et al. [20]
  IC50: 8.5 µM
[4]; ref [18],[20],[38]
  fold lower IC50 for mammalian SpdS compared to the P. falciparum enzyme: 170 fold
[4]; ref [21],[38]
  fold less efficient inhibitor of mammalian SpdS than adenosylspermidine: 3-7 fold

## CC1CCN(CCCN)CC1 [Compound 1, 1-(3-ammoniopropyl)-4-methylpiperidin-1-ium]
[2]
  inhibition at 100 µM: 17 ± 9.4%

## CN1CCC(N)CC1 [Compound 2, trans-4-amino-1-methylpiperidine]
[2]; 100 μM compound, PfSpdS activity inhibited compared to untreated enzyme, mean ± SEM
  inhibition at 100 µM: 6.9 ± 5.8%

## NCCCC[C@H](NC(=O)[C@@H](N)Cc1ccc(O)cc1)C(N)=O [Compound 3] (H-Tyr-Lys-NH2)
[2]; [8]
  % Inhibition (at 100 μM): No Inhibition; also recorded: did not inhibit

## NCCCN1CCN(CCCN)CC1 [Compound 4, 3-[4-(3-azaniumylpropyl)piperazine-1,4-diium-1-yl]propylazanium]
[2]; [8]
  % Inhibition (at 100 μM): No Inhibition; also recorded: did not inhibit

## CN1CCN(CCC(=O)NNC=C2C=CC(=O)C=C2O)CC1 [Compound 5, N’-[(2-hydroxy-4-oxocyclohexa-2,5-dien-1-ylidene)methyl]-3-(4-methylpiperazine-1,4-diium-1-yl)-propanehydrazide]
[2]; [8]
  % Inhibition (at 100 μM): No Inhibition
[2]; 100 μM compound, PfSpdS activity inhibited compared to untreated enzyme, mean ± SEM, listed as compound 5, 100 µM
  % Inhibition (at 100 μM): neither compound showed reduction in PfSpdS activity

## CN(C[C@H](O)CN)C[C@H](O)CN1CCCCC1 [Compound 6, [(2R)-3-azaniumyl-2-hydroxypropyl]-[(2S)-2-hydroxy-3-piperidin-1-ium-1-ylpropyl]-methylazanium]
[2]; [8]
  % Inhibition (at 100 μM): No Inhibition
[2]; 100 μM compound, PfSpdS activity inhibited compared to untreated enzyme, mean ± SEM, listed as compound 6, 100 µM
  % Inhibition (at 100 μM): neither compound showed reduction in PfSpdS activity

## NCCCC[C@H](NC(=O)[C@@H](N)CCCCN)C(=O)Nc1ccc2ccccc2c1 [Compound 7, [(2S)-6-azaniumyl-1-[[(2S)-6-azaniumyl-1-(naphthalen-2-ylamino)-1-oxohexan-2-yl]amino]-1-oxohexan-2-yl]azanium]
[2]; [8]
  % Inhibition (at 100 μM): No Inhibition
[2]; 100 μM compound, PfSpdS activity inhibited compared to untreated enzyme, mean ± SEM, listed as compound 7, 100 µM
  % Inhibition (at 100 μM): showed no inhibition

## NCCCN[C@H]1CC[C@H](N)CC1 [Compound 8, N-(3-aminopropyl)-trans-cyclohexane-1,4-diamine]
[2]
  IC50: 619 ± 144 µM
  fold difference in IC50 between compound 8 and compound 9: 100 fold
  inhibition at 100 µM: 12.7 ± 9.1%
  pseudo-substrate for PfSpdS: acts as a pseudo-substrate

## NCCCNC1CCCCC1 [Compound 9, N-(3-aminopropyl)-cyclohexylamine]
[2]
  IC50: 7.4 ± 2.4 µM
  Ki: 2.8 µM
  fold difference in IC50 between compound 8 and compound 9: 100 fold
  inhibition at 100 µM: 88.3 ± 1.2%
  pseudo-substrate for PfSpdS: no evidence was found
[2]; between compound and putrescine, preliminary kinetic experiments
  type of inhibition: mixed-type competitive inhibition
[3]; ref Shirahata et al. [22]
  inhibition of mammalian SpdS: does not inhibit
[3]; ref Shirahata et al. [22], listed as compound 9
  inhibition of mammalian SpdS: did not inhibit and not
[5]
  inhibition of mammalian spermine synthase: inhibitor
[5]; listed as compound 9
  inhibition of mammalian spermine synthase: potent inhibitor

## NC1CCCCC1 [Cyclohexylamine]
[3]; ref Shirahata et al. [22]
  IC50: 8.1 µM
[1]; ref Haider et al. [18]
  IC50: 19.7 ± 3.1 µM

## C[S+](CCCN)C[C@H]1O[C@@H](n2cnc3c(N)ncnc32)[C@H](O)[C@@H]1O (stereo partly shown) [dcAdoMet, decarboxylated S-adenosylmethionine]
[3]; mammalian enzyme, ref [18],[20],[38], read-out: Km value of the enzyme for dcAdoMet
  Km: 7 to 25 µM
[1]; P. falciparum enzyme, ref [18],[20],[38], read-out: Km value of the enzyme for dcAdoMet
  Km: 35 µM

## N[C@H]1CC[C@H](N)CC1 [trans-1,4-diaminocyclohexane]
[3]; ref [22]
  pseudo-substrate for mammalian SpdS: ~ 12%

B1: Plasmodium falciparum spermidine synthase lacking 39 amino acids at the N-terminus (enzyme, UniProt Q8II73 40-321, looked up)
chain: SKKWFSEFSIMWPGQAFSLKIKKILYETKSKYQNVLVFESTTYGKVLVLDGVIQLTEKDEFAYHEMMTHVPMTVSKEPKNVLVVGGGDGGIIRELCKYKSVENIDICEIDETVIEVSKIYFKNISCGYEDKRVNVFIEDASKFLENVTNTYDVIIVDSSDPIGPAETLFNQNFYEKIYNALKPNGYCVAQCESLWIHVGTIKNMIGYAKKLFKKVEYANISIPTYPCGCIGILCCSKTDTGLTKPNKKLESKEFADLKYYNYENHSAAFKLPAFLLKEIENI
notes: Plasmodium falciparum spermidine synthase (EC 2.5.1.16), protein lacking 39 amino acids at the N-terminus, cloned into the p15-TEV-LIC vector, from SGC Toronto; Crystallised with compound 8 and MTA; Three molecules in the asymmetric unit; subunits B and C form the homodimer; also called PfSpdS; 39 amino acid N-terminal truncated PfSpdS protein; source: expression and isolation according to Dufe …
[6]
  binding result: binds
